# Test results as given in PubChem BioAssay AID248 (DTP/NCI, 2004).
# “And” between values parts separate entries of the source, which are not always exact repeats. Identical values can stand only once. Inconclusive results and toxic doses are left out.
# System: L1210 leukemia ip in BDF1 mice, survival T/C
# Experiment: NCI In Vivo Anticancer Drug Screen. Data for tumor model L1210 Leukemia (intraperitoneal) in B6D2F1 (BDF1) mice
# Conditions: endpoint: mean survival time, higher = longer survival
# Procedure, shortened: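 Tumor cells were implanted, animals were treated, and survival was followed. The result divides the treated measurement by the vehicle-control measurement.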
# [1] = dose: 100.0 mg/kg/injection, schedule: Q04DX002 (ip), vehicle: Klucel (hydroxypropylcellulose) (HPC)
# [2] = dose: 200.0 mg/kg/injection, schedule: Q04DX002 (ip), vehicle: Klucel (hydroxypropylcellulose) (HPC)
# [3] = dose: 400.0 mg/kg/injection, schedule: Q04DX002 (ip), vehicle: Klucel (hydroxypropylcellulose) (HPC)
# [4] = dose: 100.0 mg/kg/injection, schedule: Q01DX009 (ip), vehicle: saline with Tween-80
# [5] = dose: 100.0 mg/kg/injection, schedule: Q04DX003 (ip), vehicle: saline with Tween-80
# [6] = dose: 200.0 mg/kg/injection, schedule: Q01DX009 (ip), vehicle: saline with Tween-80
# [7] = dose: 200.0 mg/kg/injection, schedule: Q04DX003 (ip), vehicle: saline with Tween-80
# [8] = dose: 400.0 mg/kg/injection, schedule: Q01DX009 (ip), vehicle: saline with Tween-80
# [9] = dose: 400.0 mg/kg/injection, schedule: Q04DX003 (ip), vehicle: saline with Tween-80
# [10] = dose: 100.0 mg/kg/injection, schedule: Q04DX003 (ip), vehicle: saline
# [11] = dose: 200.0 mg/kg/injection, schedule: Q04DX003 (ip), vehicle: saline
# [12] = dose: 100.0 mg/kg/injection, schedule: Q01DX001 (ip), vehicle: saline
# [13] = dose: 200.0 mg/kg/injection, schedule: Q01DX001 (ip), vehicle: saline
# [14] = dose: 400.0 mg/kg/injection, schedule: Q01DX001 (ip), vehicle: saline
# [15] = dose: 400.0 mg/kg/injection, schedule: Q01DX009 (ip), vehicle: saline
# [16] = dose: 100.0 mg/kg/injection, schedule: Q01DX001 (ip), vehicle: carboxymethylcellulose (CMC)
# [17] = dose: 200.0 mg/kg/injection, schedule: Q01DX001 (ip), vehicle: carboxymethylcellulose (CMC)
# [18] = dose: 400.0 mg/kg/injection, schedule: Q01DX001 (ip), vehicle: carboxymethylcellulose (CMC)
# [19] = dose: 50.0 mg/kg/injection, schedule: Q01DX001 (ip), vehicle: carboxymethylcellulose (CMC)
smiles,measurement,setting,value
Cc1cc(Cl)ccc1OCC(=O)NCC(=O)O,T/C,[1],90 % of control
same,T/C,[2],97 % of control
same,T/C,[3],105 % of control
CC(=O)c1ccc2c3c(cccc13)CC2,T/C,[4],102 % of control
same,T/C,[5],88 % of control
same,T/C,[6],98 % of control
same,T/C,[7],104 % of control
same,T/C,[8],101 % of control
same,T/C,[9],97 % of control
NOCc1nnc(Nc2ccccc2)s1,T/C,[4],92 % of control
same,T/C,[6],90 % of control
O=S(=O)(O)c1cccc(N=Nc2c(S(=O)(=O)O)cc3cc(S(=O)(=O)O)c(N=Nc4cccc(S(=O)(=O)O)c4)c(O)c3c2O)c1,T/C,[4],109 % of control
same,T/C,[10],116 % of control
same,T/C,[6],97 % of control
same,T/C,[11],111 % of control
same,T/C,[8],108 % of control
same,T/C,"dose: 400.0 mg/kg/injection, schedule: Q04DX003 (ip), vehicle: saline",103 % of control
[Co].[NH-]C(=O)c1ccccn1.[NH2-].[NH2-].[NH2-].[NH2-].[NH2-],T/C,"dose: 100.0 mg/kg/injection, schedule: Q04DX002 (ip), vehicle: saline",118 % of control
same,T/C,"dose: 200.0 mg/kg/injection, schedule: Q04DX002 (ip), vehicle: saline",101 % of control
same,T/C,"dose: 400.0 mg/kg/injection, schedule: Q04DX002 (ip), vehicle: saline",108 % of control
CC(C)c1cc(C(C)C)c(C(=O)Oc2c(Br)cc(Br)cc2Br)c(C(C)C)c1,T/C,[4],95 % of control
same,T/C,[5],98 % of control
same,T/C,[6],92 % of control
same,T/C,[7],93 % of control
same,T/C,[9],90 % of control
O=C(Nc1cccc2cccnc12)C(F)(F)F,T/C,"dose: 50.0 mg/kg/injection, schedule: Q01DX001 (ip), vehicle: saline",91 % of control
same,T/C,[12],104 % of control
same,T/C,[13],91 % of control
same,T/C,[14],93 % of control
O=C(O)C1CCCN1C(=O)Cc1ccc2c(c1)OCO2 (stereo not given),T/C,"dose: 75.0 mg/kg/injection, schedule: Q01DX009 (ip), vehicle: Klucel (hydroxypropylcellulose) (HPC)",96 % of control
same,T/C,"dose: 100.0 mg/kg/injection, schedule: Q01DX001 (ip), vehicle: Klucel (hydroxypropylcellulose) (HPC)",98 % of control
same,T/C,"dose: 150.0 mg/kg/injection, schedule: Q01DX009 (ip), vehicle: Klucel (hydroxypropylcellulose) (HPC)",93 % of control
same,T/C,"dose: 200.0 mg/kg/injection, schedule: Q01DX001 (ip), vehicle: Klucel (hydroxypropylcellulose) (HPC)",95 % of control
same,T/C,"dose: 300.0 mg/kg/injection, schedule: Q01DX009 (ip), vehicle: Klucel (hydroxypropylcellulose) (HPC)",98 % of control
same,T/C,"dose: 400.0 mg/kg/injection, schedule: Q01DX001 (ip), vehicle: Klucel (hydroxypropylcellulose) (HPC)",92 % of control
COC(=O)C1(C)CCCC2(C)C1CCC13C=C(C(C)C)C(CC1C(=O)O)CC23 (stereo not given),T/C,[4],95 % of control
same,T/C,[6],93 % of control
same,T/C,[8],87 % of control
COc1ccc2c(Nc3ccc(NS(C)(=O)=O)cc3)c3ccccc3nc2c1,T/C,"dose: 6.25 mg/kg/injection, schedule: Q01DX009 (ip), vehicle: saline with Tween-80",183 % of control
same,T/C,"dose: 12.5 mg/kg/injection, schedule: Q01DX009 (ip), vehicle: saline with Tween-80",181 % of control
same,T/C,"dose: 25.0 mg/kg/injection, schedule: Q01DX009 (ip), vehicle: saline with Tween-80",117 % of control
same,T/C,"dose: 25.0 mg/kg/injection, schedule: Q01DX009 (sc), vehicle: saline",164 % of control
same,T/C,"dose: 44.0 mg/kg/injection, schedule: Q04DX003 (ip), vehicle: saline with Tween-80",172 % of control
same,T/C,"dose: 50.0 mg/kg/injection, schedule: Q01DX009 (sc), vehicle: saline",95 % of control
same,T/C,"dose: 67.0 mg/kg/injection, schedule: Q04DX003 (ip), vehicle: saline with Tween-80",169 % of control
same,T/C,[5],276 % of control
CCCCCCCSc1ncnc2c1ncn2CO,T/C,"dose: 50.0 mg/kg/injection, schedule: Q01DX009 (ip), vehicle: saline",104 % of control
same,T/C,"dose: 80.0 mg/kg/injection, schedule: Q01DX009 (ip), vehicle: saline",107 % of control
same,T/C,[12],101 % of control
same,T/C,"dose: 117.0 mg/kg/injection, schedule: Q01DX009 (ip), vehicle: other",114 % of control
same,T/C,"dose: 120.0 mg/kg/injection, schedule: Q01DX009 (ip), vehicle: saline",104 % of control
same,T/C,[13],95 % of control
same,T/C,[14],115 % of control
same,T/C,[15],164 % of control
COc1ccc(C(=O)Nc2ccc(C)c(Cl)c2)cc1,T/C,[1],115 % of control
same,T/C,[2],115 % of control
same,T/C,[3],112 % of control
Oc1c(CN2CCOCC2)cc(CN2CCOCC2)cc1CN1CCOCC1,T/C,[12],116 % of control
same,T/C,"dose: 100.0 mg/kg/injection, schedule: Q01DX009 (ip), vehicle: saline",95 % of control
same,T/C,[5],104 % of control
same,T/C,[13],98 % of control
same,T/C,"dose: 200.0 mg/kg/injection, schedule: Q01DX009 (ip), vehicle: saline",90 % of control
same,T/C,[7],95 % of control
same,T/C,[14],96 % of control
same,T/C,[15],100 % of control
same,T/C,[9],98 % of control
Cn1c2ccccc2c2cc[n+]3c(c21)CCCC3,T/C,"dose: 5.0 mg/kg/injection, schedule: Q01DX001 (ip), vehicle: saline",108 % of control
same,T/C,"dose: 10.0 mg/kg/injection, schedule: Q01DX001 (ip), vehicle: saline",108 % of control
same,T/C,"dose: 20.0 mg/kg/injection, schedule: Q01DX001 (ip), vehicle: saline",115 % of control
same,T/C,"dose: 40.0 mg/kg/injection, schedule: Q01DX001 (ip), vehicle: saline",115 % of control
NC(=O)c1cc[n+](-c2ccc([N+](=O)[O-])cc2[N+](=O)[O-])cc1,T/C,[10],102 % of control
same,T/C,[11],103 % of control
CCCCCCCCCCCCCS,T/C,"dose: 40.0 mg/kg/injection, schedule: Q01DX Z (ip), vehicle: saline",108 % of control
same,T/C,"dose: 50.0 mg/kg/injection, schedule: Q04DX003 (ip), vehicle: carboxymethylcellulose (CMC)",100 % of control
same,T/C,"dose: 60.0 mg/kg/injection, schedule: Q01DX Z (ip), vehicle: saline",120 % of control
same,T/C,"dose: 90.0 mg/kg/injection, schedule: Q01DX Z (ip), vehicle: saline",111 % of control
same,T/C,[16],110 % of control
same,T/C,"dose: 100.0 mg/kg/injection, schedule: Q04DX003 (ip), vehicle: carboxymethylcellulose (CMC)",105 % of control
same,T/C,"dose: 135.0 mg/kg/injection, schedule: Q01DX Z (ip), vehicle: saline",120 % of control
same,T/C,[17],101 % of control
same,T/C,"dose: 200.0 mg/kg/injection, schedule: Q01DX Z (ip), vehicle: saline",108 % of control
same,T/C,"dose: 200.0 mg/kg/injection, schedule: Q04DX003 (ip), vehicle: carboxymethylcellulose (CMC)",100 % of control
same,T/C,"dose: 202.5 mg/kg/injection, schedule: Q01DX Z (ip), vehicle: saline",117 % of control
same,T/C,[18],116 % of control
same,T/C,"dose: 450.0 mg/kg/injection, schedule: Q01DX Z (ip), vehicle: saline",108 % of control
same,T/C,"dose: 675.0 mg/kg/injection, schedule: Q01DX Z (ip), vehicle: saline",90 % of control
CC(=O)c1ccc(C)c([N+](=O)[O-])c1,T/C,[19],98 % of control
same,T/C,[16],91 % of control
same,T/C,[17],107 % of control
same,T/C,[18],91 % of control
NC1=NC(=S)C2N=C(N=Nc3ccc(C(=O)NC(CCC(=O)O)C(=O)O)cc3)N=C2N1 (stereo not given),T/C,"dose: 1.56 mg/kg/injection, schedule: Q01DX009 (ip), vehicle: Klucel (hydroxypropylcellulose) (HPC)",156 % of control and 177 % of control and 194 % of control
same,T/C,"dose: 3.13 mg/kg/injection, schedule: Q01DX009 (ip), vehicle: Klucel (hydroxypropylcellulose) (HPC)",189 % of control
same,T/C,"dose: 25.0 mg/kg/injection, schedule: Q01DX009 (ip), vehicle: Klucel (hydroxypropylcellulose) (HPC)",120 % of control
same,T/C,"dose: 50.0 mg/kg/injection, schedule: Q01DX009 (ip), vehicle: Klucel (hydroxypropylcellulose) (HPC)",121 % of control
same,T/C,"dose: 50.0 mg/kg/injection, schedule: Q04DX003 (ip), vehicle: Klucel (hydroxypropylcellulose) (HPC)",114 % of control
same,T/C,"dose: 100.0 mg/kg/injection, schedule: Q01DX009 (ip), vehicle: Klucel (hydroxypropylcellulose) (HPC)",88 % of control
CC(CO)(CO)N=Cc1cc(Cl)cc(Cl)c1O,T/C,[19],107 % of control
same,T/C,[16],97 % of control
same,T/C,[17],107 % of control
same,T/C,[18],97 % of control
